{"source": "patent US20230220021A1", "about": "“CYCLIC PEPTIDE INHIBITORS OF PSD-95 AND USES THEREOF” (University of Copenhagen, priority 2020, published 2023)", "key": {"PSD-95-PDZ2 H225A": {"target": "T1, PSD-95-PDZ2 H225A (Homo sapiens, UniProt P78352, H225A)", "T1 construct": "measured against recombinantly expressed PSD-95-PDZ2 Ala mutants in FP saturation experiments; 7xHis (N); made in house; host or cells: Escherichia coli B21 pLys", "assay": "FP saturation assay against PSD-95-PDZ2 Ala mutant H225A", "assay_type": "binding", "conditions": "H225A mutation; TAMRA probes", "description": "(§1) Protein expression. The pRSET plasmids encoding the (7× His)-PSD-95-PDZ2 wild type and (7× His)-PSD-95-PDZ2-V178C sequences were obtained as described previously.^38 The DNA constructs encoding the PSD-95-PDZ2 mutants (K165A, K168A, F172A, F1721, S173A, N180A, T192A, K193A, H225A, E226A, V229A K233A) were produced using Phusion® site-directed mutagenesis kit on the pRSET plasmid of the wild type PSD-95-PDZ2 and with the primers listed in Table 1. The PSD-95-PDZ2 mutants were transformed and expressed as previously described,^38 in Escherichia coli B21 pLys cells at 37° C. and 0.5 mM isopropyl-D-thiogalactopyranoside (IPTG). […] Protein concentration was measured by NanoDrop 1000 and mass determination of proteins was analyzed using an Agilent 6410 triple quadrupole LC-MS with a Poroshell column, 300SB-C18 2.1×75 mm in a linear gradient of 5% to 60% B, using a binary solvent system [A: H2O/MeCN/TFA, 94.9/5/0.1 and B: H2O/MeCN/TFA, 5/94.9/0.1] with a flow of 0.75 mL min^−1. […] The proteins were analyzed using the following gradient: from 5% to 60% B for 4 min. and from 60 to 100% B from 4 to 4.5 min.\n(§2) Fluorescence polarization (FP). […] Fluorescence polarization was measured using a Safire 2 plate reader. […] Then, the polarization was fitted into a one-site binding model using Prism software 8.0 (GraphPad), from which the Kd can be measured. […]"}, "PSD-95-PDZ2 V229A": {"target": "T2, PSD-95-PDZ2 V229A (Homo sapiens, UniProt P78352, V229A)", "T2 construct": "measured against recombinantly expressed PSD-95-PDZ2 Ala mutants in FP saturation experiments; 7xHis (N); made in house; host or cells: Escherichia coli B21 pLys", "assay": "FP saturation assay against PSD-95-PDZ2 Ala mutant V229A", "assay_type": "binding", "conditions": "V229A mutation; TAMRA probes", "description": "as §1, §2"}, "PSD-95-PDZ2 K165A": {"target": "T3, PSD-95-PDZ2 K165A (Homo sapiens, UniProt P78352, K165A)", "T3 construct": "measured against recombinantly expressed PSD-95-PDZ2 Ala mutants in FP saturation experiments; 7xHis (N); made in house; host or cells: Escherichia coli B21 pLys", "assay": "FP saturation assay against PSD-95-PDZ2 Ala mutant K165A", "assay_type": "binding", "conditions": "K165 mutation; TAMRA probes", "description": "as §1, §2"}, "PSD-95-PDZ2": {"target": "T4, PSD-95-PDZ2 (Homo sapiens, UniProt P78352)", "T4 construct": "7xHis (N); made in house; host or cells: Escherichia coli B21 pLys (for the mutants, 'as previously described')", "T4 sequence (P78352 160-246 limits assumed)": "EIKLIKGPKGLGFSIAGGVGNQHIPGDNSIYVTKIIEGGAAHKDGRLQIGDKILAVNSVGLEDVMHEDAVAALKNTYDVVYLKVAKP", "assay": "Isothermal titration calorimetry (ITC)", "assay_type": "binding", "conditions": "ITC, 25° C.", "method": "Isothermal titration calorimetry (ITC). The ITC assays were performed in NaPi 50 nM, 50 nM NaCl, pH 7.2 buffer filtered with a Corning® bottle-top vacuum filter system of a pore size of 0.22 μM, that was used to dissolve the peptides. Proteins were dialyzed against this buffer using Amicon® Ultra-15 centrifugal filter units, with a MWCO 3000 Da.\nThis assay was performed on an ITC200. The instrument differential power (DP) was set to 10 and the syringe rotating speed to 600 RPM. The assay setup consisted of introducing the protein inside the cell and the peptide (titrant) on the syringe. Calorimetry was performed at 25° C. Each analysis was performed in triplicates. Furthermore, several runs of peptide into buffer were performed in order to remove injection residual heat. Runs were analyzed with Origin 7.0 software (OriginLab)."}, "plasmin": {"target": "plasmin (Homo sapiens, UniProt P00747)", "sequence (P00747 581-810 limits assumed, species assumed)": "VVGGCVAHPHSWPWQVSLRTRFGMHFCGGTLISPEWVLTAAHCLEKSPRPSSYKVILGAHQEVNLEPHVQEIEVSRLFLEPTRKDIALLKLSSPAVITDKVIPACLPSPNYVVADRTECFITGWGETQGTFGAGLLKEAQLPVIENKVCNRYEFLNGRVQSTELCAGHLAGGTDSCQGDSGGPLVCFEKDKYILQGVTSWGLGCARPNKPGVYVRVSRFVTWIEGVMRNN", "sequence (P00747 97-580 partner limits assumed, species assumed)": "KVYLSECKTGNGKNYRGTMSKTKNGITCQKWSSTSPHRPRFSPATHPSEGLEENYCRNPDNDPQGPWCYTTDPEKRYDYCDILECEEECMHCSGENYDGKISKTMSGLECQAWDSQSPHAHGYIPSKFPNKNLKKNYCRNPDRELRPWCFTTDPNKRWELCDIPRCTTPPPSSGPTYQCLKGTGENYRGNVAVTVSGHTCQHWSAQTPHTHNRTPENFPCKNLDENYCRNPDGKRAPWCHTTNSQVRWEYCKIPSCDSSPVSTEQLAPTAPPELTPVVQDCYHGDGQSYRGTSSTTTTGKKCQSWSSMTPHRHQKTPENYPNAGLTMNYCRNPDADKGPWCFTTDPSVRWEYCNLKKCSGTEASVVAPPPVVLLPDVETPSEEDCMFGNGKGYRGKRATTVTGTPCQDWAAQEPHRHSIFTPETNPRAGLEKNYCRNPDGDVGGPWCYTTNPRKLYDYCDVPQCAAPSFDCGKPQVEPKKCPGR", "assay": "In vitro plasmin stability", "assay_type": "in vitro ADME", "conditions": "plasmin (10 μg/mL) in phosphate buffered saline; 100 μM ligand, PBS with plasmin (10 μg/mL), 37° C., 0 to 360 minutes; mean n=3", "protocol": "The in vitro plasmin stability of peptides with SEQ ID NOs: 12, 68, 99 and 163 were determined by incubating 100 μM of ligand in phosphate buffered saline (PBS) supplemented with plasmin (10 μg/mL) at 37° C. for 0 to 360 minutes. At selected time points during the incubation, the ligands were extracted from 80 μL of assay matrix by treatment with 80 μL of 50% acetonitrile (ACN). The samples were filtered and analysed by UPLC to determine the amount of ligand remaining. LC-MS analysis was performed to confirm ligand integrity and identify cleavage sites."}, "[1]": {"tested_on": "HeLa cells stably expressing HaloGFP", "from_the_text": "To assess the cellular permeability and delivery to the cytosol of the compounds as defined herein, the cellular chloroalkane penetration assay (CAPA) may be used (Peraro et al. 2018). This assay takes advantage of a modified haloalkane dehalogenase designed to covalently bind chloroalkane (CA) molecules. A HeLa cell line expressing a fusion protein comprising a HaloTag, a green fluorescent protein (GFP) and a mitochondria-targeting peptide is used to report cytosolic delivery. […] Cells expressing the HaloTag enzyme are incubated with CA-tagged peptides. When these CA-peptides penetrate the cell membrane and reach the cytosol, they will bind to and react with the HaloTag (pulse step). Following a washing step, the cells are incubated with a CA-tagged dye that quantitatively penetrates the cell membrane and reacts with remaining unreacted HaloTag sites (chase step). Flow cytometry is used to measure the fluorescence intensity of the cells and the measured fluorescence is inversely proportional to the amount of CA-peptides that reach the penetrated the cells and can thus be used to assess cytosolic delivery. The obtained data is commonly expressed as CP50 values, the concentration at which 50% cell penetration is observed. […]"}}, "note": "Where a SMILES comes first, the peptide text is derived from it. The star is where a group is joined. 5TAMRA = CN(C)c1ccc2c(c1)Oc1cc(N(C)C)ccc1C21OC(=O)c2cc(C(=O)*)ccc21", "data": [{"molecule": "CC[C@H](C)[C@H](NC(=O)[C@H](CO)NC(=O)[C@H](CO)NC(=O)[C@H](CC(C)C)NC(=O)[C@H](CCCCN)NC(=O)c1ccc2c(c1)C(=O)OC21c2ccc(N(C)C)cc2Oc2cc(N(C)C)ccc21)C(=O)N[C@@H](CCC(=O)O)C(=O)N[C@@H](CO)C(=O)N[C@@H](CC(=O)O)C(=O)N[C@H](C(=O)O)C(C)C", "note": "[C-terminal GluN2B TAM RA probe] (5TAMRA-KLSSIESDV-OH; N-terminus assumed)", "values": [{"measurement": "fold decrease in affinity (Kd mutant normalized to PSD-95-PDZ2 WT)", "setting": "PSD-95-PDZ2 H225A", "value": 5, "unit": "fold"}, {"measurement": "fold loss in affinity (Kd mutant normalized to PSD-95-PDZ2 WT)", "setting": "PSD-95-PDZ2 V229A", "value": 2, "unit": "fold"}, {"measurement": "fold loss in affinity (Kd mutant normalized to PSD-95-PDZ2 WT)", "setting": "PSD-95-PDZ2 K165A", "value": 5, "unit": "fold"}]}, {"molecule": "CC[C@H](C)[C@@H]1NC(=O)[C@H]([C@@H](C)O)NC(=O)[C@H](CCCCN)NC(=O)[C@@H]2CCCN2C(=O)[C@H]([C@@H](C)O)NC(=O)CNC(=O)[C@H](CC(=O)O)NC(=O)CNC(=O)[C@H]([C@@H](C)O)NC(=O)[C@H](Cc2ccccc2)NC(=O)[C@H]([C@@H](C)O)NC(=O)[C@H]([C@@H](C)O)NC(=O)[C@H](CCC(=O)O)NC(=O)[C@H](CC(C)C)NC(=O)[C@H](Cc2c[nH]cn2)NC(=O)[C@H]([C@@H](C)O)NC(=O)[C@H](CCC(N)=O)NC(=O)CNC(=O)[C@H]2CCCN2C(=O)[C@H](CCC(N)=O)NC(=O)[C@H]([C@@H](C)O)NC(=O)[C@H](C(C)C)NC(=O)[C@H](CCCNC(=N)N)NC1=O", "note": "[compound 12]", "values": [{"measurement": "ΔH", "setting": "PSD-95-PDZ2", "value": "-7.7418 ± 0.6837", "unit": "kcal/mol"}, {"measurement": "−ΔS*T", "setting": "PSD-95-PDZ2", "value": "0.3499 ± 0.3084", "unit": "kcal/mol"}, {"measurement": "half-life at 100 μM", "setting": "plasmin", "value": 1.18, "unit": "h"}]}, {"molecule": "cyclo-(THLETTFTGDGTP(K-CA)TIRVTQpGQ) [SEQ ID NO: 427]", "values": [{"measurement": "CP50", "setting": "[1]", "value": "31.1 ± 2.1", "unit": "µM"}]}]}
